The results in this text go back to patent publication US20080275084A1, “Piperidines for the Treatment of Chemokine Mediated Diseases” (ASTRAZENECA AB, priority 2005, published 2008).

pKi: −log10 of the molar value. Counter-ions that a name gives are not always drawn.

The target of assay [1] is T1, recombinant human CCR3 (Homo sapiens, UniProt P51677).
T1 construct: expressed in transfected cells; host or cells: CHO-K1
T1 sequence (P51677 1-355): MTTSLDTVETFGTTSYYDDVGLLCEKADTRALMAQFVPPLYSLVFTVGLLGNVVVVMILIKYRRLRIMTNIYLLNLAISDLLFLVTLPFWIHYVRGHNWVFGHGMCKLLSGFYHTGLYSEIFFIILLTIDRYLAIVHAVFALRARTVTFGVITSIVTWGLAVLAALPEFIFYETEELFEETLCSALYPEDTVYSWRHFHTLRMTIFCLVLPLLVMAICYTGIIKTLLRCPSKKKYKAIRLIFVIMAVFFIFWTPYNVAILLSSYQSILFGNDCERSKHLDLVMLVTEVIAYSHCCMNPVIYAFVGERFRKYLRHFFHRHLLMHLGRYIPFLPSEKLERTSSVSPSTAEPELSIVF
In words: Compound affinity at human recombinant CCR3 receptors, radioligand competition on CHO-K1 cell membranes. The assay is classed as binding. The note with it: competition with 2 nM [3H]-4-(2,4-dichloro-3-methylphenoxy)-1'-[4-(methylsulfonyl)benzoyl]-1,4'-bipiperidine, 2 h at 37° C., mean pKi by Cheng-Prussof correction of pIC50, minimum 2 experiments. The protocol:
Determination of Compound Affinity at Human Recombinant CCR3 Receptors Assessed by Competition of [^3H]-4-(2,4-dichloro-3-methylphenoxy)-1′-[4-(methylsulfonyl)benzoyl]-1,4′-bipiperidine for CHO-K1 Cell Membranes In Vitro
Membranes, prepared from CHO-K1 cells stably expressing recombinant human CCR3, suspended in assay buffer (50 mM Tris-Base, pH 7.4; containing sodium chloride (100 mM) and magnesium chloride (2 mM)) were incubated in the presence of 2 nM [^3H]-4-(2,4-dichloro-3-methylphenoxy)-1′-[4-(methylsulfonyl)benzoyl]-1,4′-bipiperidine, along with vehicle (1% (v/v) DMSO), 4-(4-chloro-3-methylphenoxy)-1′-[2-(methylsulfonyl)benzoyl]-1,4′-bipiperidine (to define non-specific binding) or test compound for 2 h at 37° C. in round bottomed 96-well plates. The plates were then filtered onto GF/B filter plates, pre-soaked for 1 hour in plate-coating solution (0.3% (w/v) polyethylenimine, 0.2% (w/v) BSA in de-ionised water), using a 96-well plate Tomtec cell harvester. Four washes (250 μL) with wash buffer (50 mM Tris-Base, pH 7.4 containing sodium chloride (500 mM) and magnesium chloride (2 mM)) were performed at 4° C. to remove unbound radioactivity. […] The plates were sealed (TopSeal A) and filter-bound radioactivity was measured with a scintillation counter (TopCount, Packard BioScience) using a 1 minute counting protocol. […]
(Displacement assays read how much labelled ligand stays bound in the presence of the test substance.)

The target in assay [2] is T2, human H1 receptor (Homo sapiens, UniProt P35367).
T2 construct: purchased Euroscreen SA, Brussels, Belgium ES-390-M; host or cells: CHO-K1
T2 sequence (P35367 whole entry): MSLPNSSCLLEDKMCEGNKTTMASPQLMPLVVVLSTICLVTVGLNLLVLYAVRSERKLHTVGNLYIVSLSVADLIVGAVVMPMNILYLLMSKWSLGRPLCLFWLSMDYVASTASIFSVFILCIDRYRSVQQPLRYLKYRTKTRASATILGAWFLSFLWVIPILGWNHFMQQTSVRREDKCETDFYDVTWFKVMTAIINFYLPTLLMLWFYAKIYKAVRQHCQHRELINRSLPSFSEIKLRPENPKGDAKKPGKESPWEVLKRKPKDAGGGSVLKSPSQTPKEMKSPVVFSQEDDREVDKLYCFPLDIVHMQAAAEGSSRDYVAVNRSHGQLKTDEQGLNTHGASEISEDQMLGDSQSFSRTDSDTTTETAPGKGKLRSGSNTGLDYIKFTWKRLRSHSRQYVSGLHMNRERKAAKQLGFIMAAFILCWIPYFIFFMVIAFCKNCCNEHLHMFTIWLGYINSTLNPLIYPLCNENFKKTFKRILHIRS
Description: Histamine H1 receptor binding, competition displacement of [3H]-pyrilamine. The note with it: displacement of 1 nM [3H]-pyrilamine, membranes of recombinant CHO-K1 cells expressing human H1 receptor, 1 hour at room temperature; for Ki: read-out: H1 pKi (converted). The protocol:
Histamine H1 receptor binding activity of compounds of the invention was assessed by competition displacement of 1 nM [3H]-pyrilamine (Amersham, Bucks, Product code TRK 608, specific activity 30 Ci/mmol) to 2 μg membranes prepared from recombinant CHO-K1 cells expressing the human H1 receptor (Euroscreen SA, Brussels, Belgium, product code ES-390-M) in assay buffer (50 mM Tris pH 7.4 containing 2 mM MgCl2, 250 mM sucrose and 100 mM NaCl) for 1 hour at room temperature.
The following compounds of the invention gave inhibition of [3H]pyrilamine binding: […]

The pKi is the Ki on a negative log10 scale, so that one unit is a factor of ten. On to `Cc1cc(Cl)ccc1OC1CCN(CC2CCN([C@@](C)(CC(C)C)C(=O)O)CC2)CC1` [Example 16A, (2S)-2-{4-[4-(4-Chloro-2-methyl-phenoxy)-piperidin-1-ylmethyl]-piperidin-1-yl}-2,4-dimethyl-pentanoic acid], for which the pKi in assay [1] was 9.20.
Turning to `Cc1c(OC2CCN(CC3CCN(C4(C(=O)O)CCCC4)CC3)CC2)ccc(Cl)c1Cl` [Example 8A, 1-(4-{[4-(3,4-dichloro-2-methylphenoxy)piperidin-1-yl]methyl}piperidin-1-yl)cyclopentanecarboxylic acid], the Ki in assay [2] was 316 nM.
Regarding `Cc1cc(Cl)ccc1OC1CCN(CC2CCN(C3(C(=O)O)CCCCC3)CC2)CC1` [Example 13A, 1-(4-{[4-(4-Chloro-2-methylphenoxy)piperidin-1-yl]methyl}piperidin-1-yl)cyclohexanecarboxylic acid dihydrochloride], in assay [2], the Ki was 631 nM.
For `O=C(O)[C@H](CC1CCCC1)N1CCC(CN2CCC(Oc3ccc(Cl)c(Cl)c3)CC2)CC1` [Example 4A, (2S)-3-Cyclopentyl-2-(4-{[4-(3,4-dichlorophenoxy)piperidin-1-yl]methyl}piperidin-1-yl)propanoic acid], in assay [2], the Ki was 126 nM.
Take `Cc1c(OC2CCN(CC3CCN([C@@H](CC4CC4)C(=O)O)CC3)CC2)ccc(Cl)c1Cl` [Example 3A, (2S)-3-Cyclopropyl-2-(4-{[4-(3,4-dichloro-2-methylphenoxy)piperidin-1-yl]methyl}piperidin-1-yl)propanoic acid]: the Ki in assay [2] was 200 nM.
The same measure, in the same setting: the result for `Cc1c(OC2CCN(CC3CCN([C@@H](CC4CCCCC4)C(=O)O)CC3)CC2)ccc(Cl)c1Cl` [Example 2A, (2S)-3-Cyclohexyl-2-(4-{[4-(3,4-dichloro-2-methylphenoxy)piperidin-1-yl]methyl}piperidin-1-yl)propanoic acid] reads 79.4 nM.
Consider “(2S)-3-cyclohexyl-2-(4-{[4-(3,4-dichloro-2-methylphenoxy)piperidin-1-yl]methyl}piperidin-1-yl)propanoic acid [Example 1A]”, for which the “H1 pKi” value in assay [2] was found to be 7.2.
For `O=C(O)C1(N2CCC(CN3CCC(Oc4ccc(Cl)c(Cl)c4)CC3)CC2)CCCCC1` [Example 6A, 1-(4-{[4-(3,4-dichlorophenoxy)piperidin-1-yl]methyl}piperidin-1-yl)cyclohexanecarboxylic acid], the Ki in assay [2] was 501 nM.
